The results in this text go back to ChEMBL document CHEMBL1132912, “Cytotoxic alpha-bromoacrylic derivatives of distamycin analogues modified at the amidino moiety” (Bioorg Med Chem Lett, 2000).

For orientation: T/C means the ratio of treated to control.

What all share (format): functional
Test [1] concerns Mus musculus. In words: In vivo antileukemic activity was determined in mice infected with L1210 leukemia cell after intravenous of treated versus untreated mice 10).
Test [2] relates to Mus musculus. In words: In vivo antileukemic activity was determined on L1210 leukemia cell in mice (O.D.=optimal (non-toxic) dose <LD10).
Test [3] relates to Mus musculus. In words: In vivo antileukemic activity was determined in mice infected with L1210 leukemia cell after intravenous administration (T/C=median survival time of treated versus untreated mice 10).

Take `C=C(Br)C(=O)Nc1cc(C(=O)Nc2cc(C(=O)Nc3cc(C(=O)Nc4cc(C(=O)NCCC(N)=O)n(C)c4)n(C)c3)n(C)c2)n(C)c1.Cl`: the T/C with Mus musculus [1] was 169%. For the same molecule, the OD in the test on Mus musculus [2] is 6.25 mg/kg.

`C=C(Br)C(=O)Nc1cc(C(=O)Nc2cc(C(=O)Nc3cc(C(=O)Nc4cc(C(=O)NCCC(=N)NO)n(C)c4)n(C)c3)n(C)c2)n(C)c1.Cl` returned a T/C in the test on Mus musculus [1] of 186%. In the test on Mus musculus [2], the OD came to 6.25 mg/kg.

With `C=C(Br)C(=O)Nc1cc(C(=O)Nc2cc(C(=O)Nc3cc(C(=O)Nc4cc(C(=O)NCCC(=N)NC)n(C)c4)n(C)c3)n(C)c2)n(C)c1.Cl`, the T/C with Mus musculus [1] is 150%. This molecule returned an OD with Mus musculus [2] of 3.13 mg/kg.

In turn, `C=C(Br)C(=O)Nc1cc(C(=O)Nc2cc(C(=O)Nc3cc(C(=O)Nc4cc(C(=O)NCCN=C(N)N)n(C)c4)n(C)c3)n(C)c2)n(C)c1.Cl` registered a T/C with Mus musculus [1] of 196%. In the test with Mus musculus [2], the OD was 1.56 mg/kg.

With `C=C(Br)C(=O)Nc1cc(C(=O)Nc2cc(C(=O)Nc3cc(C(=O)Nc4cc(C(=O)NCCC(=N)NC#N)n(C)c4)n(C)c3)n(C)c2)n(C)c1.Cl`, in the test with Mus musculus [1], the T/C is recorded as 157%. Moreover, the OD in the test with Mus musculus [2] was 3.13 mg/kg.

In the test on Mus musculus [1], `C=C(Br)C(=O)Nc1cc(C(=O)Nc2cc(C(=O)Nc3cc(C(=O)Nc4cc(C(=O)NCC/C(=N/C)NC)n(C)c4)n(C)c3)n(C)c2)n(C)c1.Cl` had a T/C of 258%. This molecule had an OD in the test with Mus musculus [2] of 1.56 mg/kg.

Molecule `C=C(Br)C(=O)Nc1cc(C(=O)Nc2cc(C(=O)Nc3cc(C(=O)Nc4cc(C(=O)NCCC#N)n(C)c4)n(C)c3)n(C)c2)n(C)c1.Cl` showed an OD in the test with Mus musculus [2] of 12.5 mg/kg. For the same molecule, the T/C in the test on Mus musculus [3] was 157%.
